Assay results as given in patent publication US6630338B2, “Removing deacetylase contaminant from cephalosporin C acylase using cationic surfactant” (Fujisawa Pharmaceutical Co., Ltd., priority 1996, dated 2003).

What was measured:
CC acylase = experiment: Residual CC acylase activity after addition of surfactant (7-ACA produced from GL7-ACA); assay type: biochemical, Pseudomonas; settings: for residual activity (CC acylase): room temperature 16 hours, relative to activity before addition as 100
Experimental: (§1) Mutant CC acylase N-176 producing E. coli JM 109 (PCCN 176-2) FERM BP-3047 was cultured according to the method disclosed in Example 3 of Japanese Patent Unexamined Publication No. 584078 and the cells were harvested by centrifugation. The obtained cell pellets were disrupted with a homogenizer and soluble protein component was extracted with water, which was followed by centrifugation to remove debris, whereby a crude extract solution was obtained.
(§2) Polyethyleneimine was added to the crude extract solution obtained in the above-mentioned (1) to allow precipitation of the nucleic acid, which was followed by centrifugation to recover supernatant. This supernatant was applied to DEAE column equilibrated with phosphate buffer (pH 7.0), washed with water and eluted with 0.2M-NaCl. […] The activities of CC acylase and deacetylase in each sample before and after the addition of the surfactant were measured and the changes thereof were examined. The enzyme activity was calculated by quantitatively determining 7-ACA and deacetyl 7-ACA produced from GL7-ACA as a substrate.

deacetylase = experiment: Residual contaminant deacetylase activity after addition of surfactant (deacetyl 7-ACA produced from GL7-ACA); assay type: biochemical; settings: for residual activity (deacetylase): room temperature 16 hours, relative to activity before addition as 100
Experimental: as §1, §2

[1] = surfactant addition concentration 0.1%
[2] = surfactant addition concentration 0.3%
[3] = surfactant addition concentration 0.5%
[4] = surfactant concentration 0.1-0.3%

Compound	residual activity (CC acylase) (CC acylase; [1])	residual activity (CC acylase) (CC acylase; [2])	residual activity (CC acylase) (CC acylase; [3])	residual activity (deacetylase) (deacetylase; [1])	residual activity (deacetylase) (deacetylase; [2])	residual activity (deacetylase) (deacetylase; [3])	CC acylase residual activity (CC acylase; [4]) [%]	activity of contaminant deacetylase (deacetylase; [4])	removal of deacetylase (deacetylase; surfactant concentration 0.5%)
CCCCCCCCCCCC[N+](C)(C)C.[Cl-] [Cation BB, dodecyltrimethyl ammonium chloride]	100	100	85	55	45	5	–	–	–
alkyl glycine [Nissan Anon LG]	100	100	95	60	50	30	–	–	–
alkyl(palm)dimethylbenzyl ammonium chloride [Cation F2-50]	95	92	70	5	1	0	≥ 90	not more than 5%	removed nearly completely
alkyl(palm)trimethyl ammonium chloride [Cation FB]	100	100	80	55	40	1	–	–	–
polyoxyethylene octylphenyl ether [Nonion HS-210]	100	100	100	50	50	45	–	–	–
polyoxyethylenesorbitan monooleate [Nonion TO-221]	100	100	100	50	50	45	–	–	–
